Experimental data taken from US20220259593A1, “CONTROL OF MAMMALIAN GENE DOSAGE USING CRISPR” (The Regents of the University of California, priority 2019, published 2022).

Test system: K562 CRISPRi cells
Experiment: Perturb-seq pooled growth measurement (sgRNA counts, growth phenotype γ, relative activity)
Assay type: cell-based, human
Conditions: sequencing read counts; for Perturb-seq pooled growth sgRNA counts, d5: 5 days of growth (day seven after transduction); for Perturb-seq pooled growth sgRNA counts, d10: 10 days of growth (day twelve after transduction); for Perturb-seq pooled growth sgRNA counts, T0: T0 = day two after transduction
Outline: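 sgRNA abundance was sequenced from genomic DNA of the same transduced population sampled on days two, seven and twelve. Phenotype γ compares normalized day seven and twelve counts with day two. Day-seven values (five days of growth) define relative sgRNA activity.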

GINS1_−_25388381.23-P1P2_08: sgRNA targeting GINS1, GGACTAGAGCGAAAGGAGTG, SEQ ID NO: 94 (listed as DNA, chemistry not fully specified)
Perturb-seq pooled growth sgRNA counts, d5: 2461 | Perturb-seq pooled growth sgRNA counts, d10: 1756 | Perturb-seq pooled growth sgRNA counts, T0: 18173

GINS1_−_25388381.23-P1P2_14: sgRNA targeting GINS1, GGACTAGAACGAAAGGAGCG, SEQ ID NO: 97 (listed as DNA, chemistry not fully specified)
Perturb-seq pooled growth sgRNA counts, d5: 5833 | Perturb-seq pooled growth sgRNA counts, d10: 6093 | Perturb-seq pooled growth sgRNA counts, T0: 6443

GNB2L1_+_180670873.23-P1P2_00: sgRNA targeting GNB2L1, GTGCAAGGCGGCGGCAGGAG, SEQ ID NO: 55 (listed as DNA, chemistry not fully specified)
Perturb-seq pooled growth sgRNA counts, d5: 2456 | Perturb-seq pooled growth sgRNA counts, d10: 1685 | Perturb-seq pooled growth sgRNA counts, T0: 2280

GNB2L1_+_180670873.23-P1P2_02: sgRNA targeting GNB2L1, GTGCAAGACGGCGGCAGGAG, SEQ ID NO: 59 (listed as DNA, chemistry not fully specified)
Perturb-seq pooled growth sgRNA counts, d5: 6216 | Perturb-seq pooled growth sgRNA counts, d10: 7618 | Perturb-seq pooled growth sgRNA counts, T0: 3839

GNB2L1_+_180670873.23-P1P2_07: sgRNA targeting GNB2L1, GTGCAAGGCGGGGGCAGGAG, SEQ ID NO: 58 (listed as DNA, chemistry not fully specified)
Perturb-seq pooled growth sgRNA counts, d5: 8322 | Perturb-seq pooled growth sgRNA counts, d10: 8738 | Perturb-seq pooled growth sgRNA counts, T0: 9894

GNB2L1_+_180670873.23-P1P2_08: sgRNA targeting GNB2L1, GTGCAAGGTGGCGGCAGGAG, SEQ ID NO: 56 (listed as DNA, chemistry not fully specified)
Perturb-seq pooled growth sgRNA counts, d5: 25247 | Perturb-seq pooled growth sgRNA counts, d10: 17083 | Perturb-seq pooled growth sgRNA counts, T0: 24451

GNB2L1_+_180670873.23-P1P2_13: sgRNA targeting GNB2L1, GTGCAAGGCGGCGGCGGGAG, SEQ ID NO: 57 (listed as DNA, chemistry not fully specified)
Perturb-seq pooled growth sgRNA counts, d5: 6350 | Perturb-seq pooled growth sgRNA counts, d10: 5991 | Perturb-seq pooled growth sgRNA counts, T0: 4708

HSPA5_+_128003624.23-P1P2_00: sgRNA targeting HSPA5, GAGCCGAGTAGGCGACGGTG, SEQ ID NO: 88 (listed as DNA, chemistry not fully specified)
Perturb-seq pooled growth sgRNA counts, d5: 1756 | Perturb-seq pooled growth sgRNA counts, d10: 2176 | Perturb-seq pooled growth sgRNA counts, T0: 5785

HSPA5_+_128003624.23-P1P2_01: sgRNA targeting HSPA5, GAACCGAGTAGGCGACGGTG, SEQ ID NO: 91 (listed as DNA, chemistry not fully specified)
Perturb-seq pooled growth sgRNA counts, d5: 3124 | Perturb-seq pooled growth sgRNA counts, d10: 3812 | Perturb-seq pooled growth sgRNA counts, T0: 7580

HSPA5_+_128003624.23-P1P2_04: sgRNA targeting HSPA5, GAGCCGAGAAGGCGACGGTG, SEQ ID NO: 89 (listed as DNA, chemistry not fully specified)
Perturb-seq pooled growth sgRNA counts, d5: 3304 | Perturb-seq pooled growth sgRNA counts, d10: 4282 | Perturb-seq pooled growth sgRNA counts, T0: 11091

HSPA5_+_128003624.23-P1P2_06: sgRNA targeting HSPA5, GAGCCGAGTAGACGACGGTG, SEQ ID NO: 92 (listed as DNA, chemistry not fully specified)
Perturb-seq pooled growth sgRNA counts, d5: 17649 | Perturb-seq pooled growth sgRNA counts, d10: 23714 | Perturb-seq pooled growth sgRNA counts, T0: 10180

HSPA5_+_128003624.23-P1P2_08: sgRNA targeting HSPA5, GAGCCGAGTGGGCGACGGTG, SEQ ID NO: 90 (listed as DNA, chemistry not fully specified)
Perturb-seq pooled growth sgRNA counts, d5: 3005 | Perturb-seq pooled growth sgRNA counts, d10: 3487 | Perturb-seq pooled growth sgRNA counts, T0: 10148

HSPA9_−_137911079.23-P1P2_00: sgRNA targeting HSPA9, GGAGCTGCGCGATGCGGTGG, SEQ ID NO: 131 (listed as DNA, chemistry not fully specified)
Perturb-seq pooled growth sgRNA counts, d5: 944 | Perturb-seq pooled growth sgRNA counts, d10: 835 | Perturb-seq pooled growth sgRNA counts, T0: 5450

HSPA9_−_137911079.23-P1P2_02: sgRNA targeting HSPA9, GGAGTTGCGCGATGCGGTGG, SEQ ID NO: 133 (listed as DNA, chemistry not fully specified)
Perturb-seq pooled growth sgRNA counts, d5: 1727 | Perturb-seq pooled growth sgRNA counts, d10: 1872 | Perturb-seq pooled growth sgRNA counts, T0: 4345

HSPA9_−_137911079.23-P1P2_04: sgRNA targeting HSPA9, GGAGCTGCGCAATGCGGTGG, SEQ ID NO: 135 (listed as DNA, chemistry not fully specified)
Perturb-seq pooled growth sgRNA counts, d5: 9346 | Perturb-seq pooled growth sgRNA counts, d10: 10829 | Perturb-seq pooled growth sgRNA counts, T0: 6754

HSPA9_−_137911079.23-P1P2_07: sgRNA targeting HSPA9, GGAGCTGCGGGATGCGGTGG, SEQ ID NO: 132 (listed as DNA, chemistry not fully specified)
Perturb-seq pooled growth sgRNA counts, d5: 1513 | Perturb-seq pooled growth sgRNA counts, d10: 1463 | Perturb-seq pooled growth sgRNA counts, T0: 5941

HSPA9_−_137911079.23-P1P2_08: sgRNA targeting HSPA9, GGAGCTGCTCGATGCGGTGG, SEQ ID NO: 134 (listed as DNA, chemistry not fully specified)
Perturb-seq pooled growth sgRNA counts, d5: 2803 | Perturb-seq pooled growth sgRNA counts, d10: 2726 | Perturb-seq pooled growth sgRNA counts, T0: 3137

HSPE1_+_198365089.23-P1P2_00: sgRNA targeting HSPE1, GGAGACTCGCAGTCCGGCCC, SEQ ID NO: 9 (listed as DNA, chemistry not fully specified)
Perturb-seq pooled growth sgRNA counts, d5: 2348 | Perturb-seq pooled growth sgRNA counts, d10: 1179 | Perturb-seq pooled growth sgRNA counts, T0: 6813

HSPE1_+_198365089.23-P1P2_01: sgRNA targeting HSPE1, GGAGACACGCAGTCCGGCCC, SEQ ID NO: 65 (listed as DNA, chemistry not fully specified)
Perturb-seq pooled growth sgRNA counts, d5: 4228 | Perturb-seq pooled growth sgRNA counts, d10: 2663 | Perturb-seq pooled growth sgRNA counts, T0: 9669
